The target in this assay is Bromodomain-containing protein 4 (Homo sapiens, UniProt O60885). Briefly: Alphascreen Binding Assay: Binding of compounds of formula (I) with bromodomain 2, 3 4 was assessed using Alphascreen binding assay. The inhibition of the interaction between bromodomain and its acetylated target protein (Filippakopoulos P et al. 2012) was measured quantitatively using recombinant BRD proteins, an acetylated Histone 4 peptide and AlphaScreen technology. In absence of inhibition the BRD protein bound to AlphaScreen nickel chelate acceptor beads can interact with the acetylated Histone 4 peptide which is immobilized by the AlphaScreen Streptavidin coated beads. This interaction brings donor and acceptor beads in proximity. The close proximity allows the singlet oxygen produced by laser excitation of the donor beads to reach the acceptor beads and generate a luminescence signal. BRD inhibitors result in a decrease in the proximity signal through an inhibition of the BRD-acetylated peptide interaction.Recombinant human bromodomains containing the N-terminal bromodomain (BRD2-BD1 (71-194), BRD3-BD1 (24-144) and BRD4-BD1 (44-164)) or dual bromodomains (BRD4-BD12 (1-477), BRD4-BD12 (1-472)) were prepared and purified as described in protein expression and purification session.

SMILES strings stand for the structures.

Take `Cc1noc(C)c1-c1cnc2c(c1)c(CC1CCN(S(=O)(=O)c3ccccc3)CC1)cn2C`: the IC50 is below 1 µM.

As usually defined, the IC50 is the concentration that inhibits the measured activity by half.

Source of the values: ChEMBL document CHEMBL5727461, “Heterocyclic compounds and uses thereof” (2019).
